# From patent publication US20180362961A1, “METHODS AND COMPOSITIONS FOR ENHANCED NUCLEASE-MEDIATED GENOME MODIFICATION AND REDUCED OFF-TARGET SITE EFFECTS” (Danisco US Inc., priority 2015, published 2018)
# Read-outs that look alike come from different tables or passages of the source.
# What was measured:
# [1] = system: Yarrowia lipolytica cells; assay: Colony PCR of the CAN1 locus to determine frequency of HDR at Cas9/gRNA double-strand breaks; type: cell-based; settings: for Fold HDR over untreated (±SEM) / HDR Frequency (±SEM): pRF303, Can1-1 target site, with editing template
# Description: To determine the frequency of HDR at the targeted double-strand breaks generated by Cas9/gRNA at the Can1-1 target site Yarrowia colony PCR of the CAN1 locus (SEQ ID NO: 40) (primers used, […], forward (SEQ ID NO: 38) and […], reverse (SEQ ID NO: 39)) was performed using standard techniques. If the CAN1 locus was unmodified or contained a small indel generated by NHEJ the colony PCR result would give a band similar in size to the WT CAN1 locus at an apparent size of 2125 bp (SEQ ID NO: 40). If the Cas9/gRNA generated double-strand break had been repaired using the editing templates the PCR would generate a smaller CAN1 locus product 392 bp indicating the deletion of the entire open-reading frame (SEQ ID NO: 41). Colony PCR was performed on all canavanine resistant colonies from cells transformed with pRF303 in the presence of editing template and the fraction of cells where the Cas9/gRNA generated double-strand break was repaired via HDR with the editing template and various Scr-7 treatment schemes was determined (Table 1).
# [2] = system: Yarrowia lipolytica cells
# Description: In this example Yarrowia lipolytica cells treated with the DNA Ligase IV inhibitor, Scr7, were transformed with targeting plasmids in the presence and absence of editing templates. Homology directed repair (HDR) occurs between an editing template and the target DNA when there are two regions of homology flanking a region of interest (FIG. 3). A DNA double-stranded break at a target site within the region of interest can initiate HDR replacing the region of interest (FIG. 3, white box) with a modified region of interest carried on the editing template. In this example the modified region of interest lacks the entire open-reading frame of the CAN1 gene.
# Cells were phenotypically scored for Canavanine resistance to determine overall targeting efficiency (NHEJ+HDR). Colony PCR of the CAN1 locus (SEQ ID NO: 35) was performed to differentiate repair of the Cas9/gRNA generated double-strand break by HDR or NHEJ.
# Three different treatment conditions were tested: Untreated, Scr7-A, and Scr7-B (A schematic of the three treatments is shown in FIG. 4). For all three conditions a uracil auxotrophic strain of Yarrowia lipolytica ATCC20362 was used For the untreated condition the strain was grown for 24 hours on YPD medium plates (Teknova) at 30° C. (also referred to as a pretreatment). 1 loop of cells were resuspended in transformation buffer (35% polyethylene glycol average molecular weight of 3550, 100 mM lithium acetate, 100 mM dithiothreitol, 10 mM Tris, 1 mM EDTA pH 6.0). 100 μl of cell suspension was mixed with 100 ng of either pRF291 (SEQ ID NO: 18) (Cas9 expression, no gRNA) or pRF303 (SEQ ID NO: 24) (Cas9 expression, Can1-1 gRNA expression) with either no editing template or 1 μg linear editing template (SEQ ID NO: 34). Transformation mixtures were incubated at 39° C. for 1 hour at 800 RPM. Transformation mixtures were plated on complete minimal medium plates lacking uracil (Teknova) to select for cells transformed with plasmid DNA. Plates were incubated at 30° C. for 48 hours.
# For treatment Scr7-A the strain was grown for 24 hours on YPD medium plates (Teknova) at 30° C. (also referred to as a pretreatment). 1 loop of cells were resuspended in modified transformation buffer (35% polyethylene glycol average molecular weight of 3550, 100 mM lithium acetate, 100 mM dithiothreitol, 10 mM Tris, 1 mM EDTA pH 6.0, 5 μM Scr7). 100 μl of cell suspension was mixed with 100 ng of either pRF291 (SEQ ID NO:18) (Cas9 expression, no gRNA) or pRF303 (SEQ ID NO: 24) (Cas9 expression, Can1-1 gRNA expression) with either no editing template or 1 μg linear editing template (SEQ ID NO: 31). Transformation mixtures were incubated at 39° C. for 1 hour at 800 RPM. Transformation mixtures were plated on complete minimal medium plates lacking uracil (Teknova) to select for cells transformed with plasmid DNA. Plates were incubated at 30° C. for 48 hours.
# For treatment Scr7-B the strain was grown for 24 hours on YPD medium plates containing 5 μM Scr7 at 30° C. (also referred to as a pretreatment). 1 loop of cells were resuspended in modified transformation buffer (35% polyethylene glycol average molecular weight of 3550, 100 mM lithium acetate, 100 mM dithiothreitol, 10 mM Tris, 1 mM EDTA pH 6.0, 5 μM Scr7). 100 μl of cell suspension was mixed with 100 ng of either pRF291 (SEQ ID NO:18) (Cas9 expression, no gRNA) or pRF303 (SEQ ID NO: 24) (Cas9 expression, Can1-1 gRNA expression) with either no editing template or 1 μg linear editing template (SEQ ID NO: 31). Transformation mixtures were incubated at 39° C. for 1 hour at 800 RPM. Transformation mixtures were plated on complete minimal medium containing 5 μM Scr-7 plates lacking uracil. Plates were incubated at 30° C. for 48 hours.
# For each condition, 24 colonies from each transformation were streak purified on complete minimal plates lacking uracil (Teknova) for single colonies.
# [3] = system: Yarrowia lipolytica cells; assay: Relative copy number analysis (qPCR) of CAN1 fragment for off-target insertion of editing template by NHEJ; type: cell-based; settings: for Fraction of cells with single copy of CAN1 / Fraction of cells with ≥2 copies of CAN1: HDR-positive colonies
# Description: An additional complication of repair of Cas9/gRNA generated double-stranded breaks using editing template is the possibility that the editing template can be incorporated by the NHEJ pathway at other regions of DNA damage. In order to determine the frequency at which this occurs in the cells treated with editing templates under the three different Scr-7 treatments, relative copy number analysis was performed looking for a 62 bp fragment of the CAN1 locus present in both the chromosome and the editing template (SEQ ID NO: 42). Relative copy number analysis was performed on colonies from cells treated with pRF303 (SEQ ID NO: 24) and linear editing template (SEQ ID NO: 34) under all three treatment conditions. If the editing template is only incorporated during the HDR of the Cas9/gRNA double strand break at the CAN1 locus (SEQ ID NO: 35) the cell will only carry a single copy of the copy number analysis fragment (SEQ ID NO: 42). However, if the cell incorporates additional copies of the editing template elsewhere in the genome due to the activity of the NHEJ pathway additional copies of the fragment will be present and the cell will return a higher relative copy number. Briefly, genomic DNA was isolated using standard techniques from colonies that scored positive for HDR of the Can1-1 Cas9/gRNA targeted double strand break. Genomic DNA was normalized to 5 ng/μl. 1 μl of the normalized genomic DNA from each colony was added to three replicate qPCR reactions for both the CAN1 locus (SEQ ID NO: 42), (primers used, AGCGCCAAACCCAAAGC, forward (SEQ ID NO: 43), […], reverse (SEQ ID NO: 44), and 6FAM-[…]-TAMRA, probe (SEQ ID NO: 45)) or as a control the TEF1 locus (SEQ ID NO: 56) (primers used, […], forward (SEQ ID NO: 47), […], reverse (SEQ ID NO: 48) and 6FAM-[…]-TAMRA, probe (SEQ ID NO: 49)). Reactions were run in TaqMAN universal PCR master mix (ABI life technologies) on a life technologies Quant Studio 7 instrument using the following cycling conditions 95° C. for 10 minutes followed by 40 cycles of 95° C. for 15 seconds, 60° C. for 1 minute. 6FAM fluorescence from the probes was monitored through the 40 cycles of the PCR and Ct values were collected. Relative gene copy number was determined by the ΔΔCt method (User Bulletin #2 ABI PRISM 7700 Sequence Detection System (Updated 2001)). Briefly, TEF1 Ct values were used to normalize the data for differences in cell copy number between genomic DNA samples. Genomic DNA from a wildtype strain was used as a reference for the relative quantification for the CAN1 copy number fragment (SEQ ID NO: 42). Software on the Quant studio 7 calculated relative gene copy number and corresponding error for each sample relative to the wildtype strain. The colonies were separated into two bins, those with a single relative copy of the CAN1 analysis fragment (SEQ ID NO: 42) and those with 2 or more relative copies (SEQ ID NO: 42). […] The second bin represents cells where the editing template was used to repair the Cas9/gRNA generated double-strand break at the Can1-1 target site (SEQ ID NO: 22) and was integrated at least once somewhere else in the genome via a NHEJ mechanism.
# [4] = Scr7 treatment A, pRF303 and linear editing template
# [5] = Scr7 treatment B, pRF303 and linear editing template
compound,measurement,setting,value
O=c1[nH]c(=S)[nH]c(N=Cc2ccccc2)c1N=Cc1ccccc1 [Scr7],Fold HDR over untreated (±SEM),[1]; Scr7 treatment A,0.9 ± 0.1 fold
same,HDR Frequency (±SEM),[1]; Scr7 treatment A,9.7 ± 1.4
same,Fold HDR over untreated (±SEM),[1]; Scr7 treatment B,1.5 ± 0.3 fold
same,HDR Frequency (±SEM),[1]; Scr7 treatment B,16.7 ± 4.8
same,Fold HDR over untreated (±SEM),"[1]; Scr7 treatment B, listed as Scr-7",1.5 fold
same,"Fraction of breaks repaired via HDR, as % of the frequency of untreated or short Scr-7 treatment A","[1]; extended Scr-7 treatment B, linear editing template",150%
same,Canavanine resistance frequency (±Std. Dev),"[2]; Scr7 treatment A (5 μM Scr7 in transformation buffer), pRF291 (Cas9, no gRNA), no editing template",0 ± 0
same,Canavanine resistance frequency (±Std. Dev),"[2]; Scr7 treatment A, pRF291 (Cas9, no gRNA), with editing template",0 ± 0
same,Canavanine resistance frequency (±Std. Dev),"[2]; Scr7 treatment A, pRF303 (Can1-1 gRNA), no editing template",62.2 ± 6.7
same,Canavanine resistance frequency (±Std. Dev),"[2]; Scr7 treatment A, pRF303 (Can1-1 gRNA), with editing template",64.2 ± 6.4
same,Canavanine resistance frequency (±Std. Dev),"[2]; Scr7 treatment B (5 μM Scr7 in 24 h pretreatment, transformation buffer and selection plates), pRF291 (Cas9, no gRNA), no editing template",0 ± 0
same,Canavanine resistance frequency (±Std. Dev),"[2]; Scr7 treatment B, pRF291 (Cas9, no gRNA), with editing template",0 ± 0
same,Canavanine resistance frequency (±Std. Dev),"[2]; Scr7 treatment B, pRF303 (Can1-1 gRNA), no editing template",68.7 ± 6.3
same,Canavanine resistance frequency (±Std. Dev),"[2]; Scr7 treatment B, pRF303 (Can1-1 gRNA), with editing template",64.6 ± 20.3
same,Canavanine resistant cells,"[2]; pRF291 (Cas9, no functional gRNA), regardless of Scr-7 treatment scheme",did not give rise to Canavanine resistance cells
same,Fraction of cells with single copy of CAN1,[3]; [4],0.38
same,Fraction of cells with ≥2 copies of CAN1,[3]; [4],0.63
same,Fraction of cells with single copy of CAN1,[3]; [5],1
same,Fraction of cells with ≥2 copies of CAN1,[3]; [5],0
same,Colonies with a single copy of the CAN1 editing template,"[3]; Scr-7 treatment A, pRF303 and linear editing template",approximately 40%
same,Colonies with only a single copy of the CAN1 locus,"[3]; Scr-7 treatment B, pRF303 and editing template",100%
